Active and inactive are the calls of the source. The rule behind the calls is not given here.
How the values were obtained:
MDA-MB-231 [1] = assay: Downregulation of NF-kappaB-p65 expression in human MDA-MB-231 cells incubated for 48 hrs by Western blot analysis; format: functional, cell-based
SUM-159-PT [2] = assay: Antiproliferative activity against human SUM159 cells assessed as reduction in cell viability incubated for 2 days by MTT assay; format: functional, cell-based; conditions: 48 h
KG-1a = assay: Antiproliferative activity against human KG1a cells assessed as reduction in cell viability incubated for 2 days by MTT assay; format: functional, cell-based; conditions: 48 h
[3] = biological target: Transcription factor p65 (Homo sapiens) (UniProt Q04206); assay: Inhibition of LPS-stimulated NF-kappaB-p65 in human MDA-MB-231 cells incubated for 24 hrs by dual luciferase reporter gene assay; format: cell-based
[4] = Toxicity in zebra fish assessed as survival rate at 250 uM observed for 24 hrs; set-up: species or system Danio rerio; conditions: zebrafish
MCF7 [5] = assay: Inhibition of colony formation in human MCF7 cells at 0.74 uM incubated for 14 days with replacement of medium for every 3 or 4 days by crystal violet staining based visual analysis relative to control; format: functional
SK-BR-3 [6] = assay: Antiproliferative activity against human SKBR3 cells assessed as reduction in cell viability incubated for 2 days by MTT assay; format: functional, cell-based; conditions: SK-BR-3, 48 h
MCF7 [7] = assay: Inhibition of colony formation in human MCF7 cells at 0.37 uM incubated for 14 days with replacement of medium for every 3 or 4 days by crystal violet staining based visual analysis relative to control; format: functional
SUM-159-PT [8] = assay: Potency index, ratio of IC50 of TFP to IC50 of compound for antiproliferative activity against human SUM159 cells assessed as reduction in cell viability incubated for 2 days by MTT assay; format: functional
MCF7 [9] = assay: Antiproliferative activity against human MCF7 cells assessed as reduction in cell viability incubated for 2 days by MTT assay; format: functional, cell-based; conditions: MCF7, 48 h
MDA-MB-231 [10] = assay: Antiproliferative activity against human MDA-MB-231 cells assessed as reduction in cell viability incubated for 2 days by MTT assay; format: functional, cell-based; conditions: MDA-MB-231, 48 h
SUM-159-PT [11] = assay: Inhibition of mammosphere formation in human SUM159 cells assessed as reduction in number of mammosphere at 0.5 uM incubated for 10 days by microscopic analysis; format: functional
SUM-159-PT [12] = assay: Inhibition of mammosphere formation in human SUM159 cells incubated for 10 days by microscopic analysis; format: functional, cell-based
MCF7 [13] = assay: Potency index, ratio of IC50 of TFP to IC50 of compound for antiproliferative activity against human MCF7 cells assessed as reduction in cell viability incubated for 2 days by MTT assay; format: functional
SUM-159-PT [14] = assay: Inhibition of mammosphere formation in human SUM159 cells assessed as reduction in number of mammosphere at 2 uM incubated for 10 days by microscopic analysis; format: functional
MCF7 [15] = assay: Inhibition of colony formation in human MCF7 cells at 0.18 uM incubated for 14 days with replacement of medium for every 3 or 4 days by crystal violet staining based visual analysis relative to control; format: functional
SUM-159-PT [16] = assay: Inhibition of mammosphere formation in human SUM159 cells assessed as reduction in number of mammosphere at 1 uM incubated for 10 days by microscopic analysis; format: functional
MCF7 [17] = assay: Inhibition of colony formation in human MCF7 cells incubated for 14 days with replacement of medium for every 3 or 4 days by crystal violet staining based visual analysis; format: functional, cell-based
MDA-MB-231 [18] = assay: Inhibition of cell migration of human MDA-MB-231 cells incubated for 48 hrs by scratch wound healing assay; format: functional, cell-based
MDA-MB-231 [19] = assay: Inhibition of cell migration of human MDA-MB-231 cells at 0.40 and 0.80 uM incubated for 48 hrs by scratch wound healing assay; format: functional, cell-based
MCF7 [20] = assay: Inhibition of colony formation in human MCF7 cells at 0.20 uM incubated for 14 days with replacement of medium for every 3 or 4 days by crystal violet staining based visual analysis relative to control; format: functional
[21] = biological target: Transcription factor p65 (Homo sapiens) (UniProt Q04206); assay: Inhibition of LPS-stimulated NF-kappaB-p65 in human MDA-MB-231 cells at 0.40 and 0.80 uM incubated for 24 hrs by dual luciferase reporter gene assay; format: cell-based
MDA-MB-231 [22] = assay: Potency index, ratio of IC50 of TFP to IC50 of compound for antiproliferative activity against human MDA-MB-231 cells assessed as reduction in cell viability incubated for 2 days by MTT assay; format: functional
MDA-MB-231 [23] = assay: Inhibition of cell migration of human MDA-MB-231 cells at 5.40 uM incubated for 48 hrs by scratch wound healing assay; format: functional, cell-based
MCF7 [24] = assay: Inhibition of colony formation in human MCF7 cells at 2.83 uM incubated for 14 days with replacement of medium for every 3 or 4 days by crystal violet staining based visual analysis relative to control; format: functional
SK-BR-3 [25] = assay: Potency index, ratio of IC50 of TFP to IC50 of compound for antiproliferative activity against human SKBR3 cells assessed as reduction in cell viability incubated for 2 days by MTT assay; format: functional

Transcription factor p65 (Homo sapiens), sequence (Q04206 whole entry): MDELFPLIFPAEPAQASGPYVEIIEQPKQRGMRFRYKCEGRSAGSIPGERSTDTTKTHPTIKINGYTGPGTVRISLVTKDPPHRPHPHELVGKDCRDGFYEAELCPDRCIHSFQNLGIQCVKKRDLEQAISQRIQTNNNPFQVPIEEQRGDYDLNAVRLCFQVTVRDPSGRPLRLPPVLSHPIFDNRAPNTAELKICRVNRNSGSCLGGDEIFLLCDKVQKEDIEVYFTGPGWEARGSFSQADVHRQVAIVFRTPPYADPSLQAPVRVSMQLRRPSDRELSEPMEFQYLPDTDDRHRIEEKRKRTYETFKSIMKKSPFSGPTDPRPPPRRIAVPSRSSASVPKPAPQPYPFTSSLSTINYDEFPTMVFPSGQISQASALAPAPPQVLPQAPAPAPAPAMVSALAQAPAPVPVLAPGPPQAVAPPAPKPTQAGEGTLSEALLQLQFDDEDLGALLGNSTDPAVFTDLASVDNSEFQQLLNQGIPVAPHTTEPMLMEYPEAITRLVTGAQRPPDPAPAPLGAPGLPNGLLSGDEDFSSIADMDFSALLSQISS

## O=C(CCC(=O)N1CCN(CCCN2c3ccccc3Sc3ccccc32)CC1)OCCCCOc1no[n+]([O-])c1S(=O)(=O)c1ccccc1
MDA-MB-231 [1]
  Activity: Dose-dependent effect
SUM-159-PT [2]
  IC50: 1.63 µM
KG-1a
  IC50: 1.63 µM
[3]
  inhibition: Dose-dependent effect
[4]
  survival at 24 h, 250 µM: 64.5%
MCF7 [5]
  inhibition at 0.74 µM: 11.6%
SK-BR-3 [6]
  IC50: 13.6 µM
MCF7 [7]
  inhibition at 0.37 µM: 33.1%
SUM-159-PT [8]
  Ratio IC50: 6 - 15
MCF7 [9]
  IC50: 2.94 µM
MDA-MB-231 [10]
  IC50: 11.2 µM
SUM-159-PT [11]
  Activity: 19
SUM-159-PT [12]
  inhibition: Dose-dependent effect
MCF7 [13]
  Ratio IC50: 4 - 13
SUM-159-PT [14]
  Activity: 1
MCF7 [15]
  inhibition at 0.18 µM: 64.4%
SUM-159-PT [16]
  Activity: 8
MCF7 [17]
  inhibition: Dose-dependent effect
MDA-MB-231 [18]
  inhibition: Dose-dependent effect

## O=C(CCC(=O)N1CCN(CCCN2c3ccccc3Sc3ccccc32)CC1)OCC#CCOc1no[n+]([O-])c1S(=O)(=O)c1ccccc1
SUM-159-PT [2]
  IC50: 2.85 µM
SK-BR-3 [6]
  IC50: 8.89 µM
MCF7 [9]
  IC50: 1.55 µM
MDA-MB-231 [10]
  IC50: 6.4 µM
MCF7 [13]
  Ratio IC50: 7

## O=C(CCC(=O)N1CCN(CCCN2c3ccccc3Sc3ccccc32)CC1)OCCOc1no[n+]([O-])c1S(=O)(=O)c1ccccc1
MDA-MB-231 [1]
  Activity: Dose-dependent effect
SUM-159-PT [2]
  IC50: 1.78 µM
KG-1a
  IC50: 1.78 µM
[4]
  survival at 24 h, 250 µM: 51.6%
SK-BR-3 [6]
  IC50: 2.22 µM
MCF7 [9]
  IC50: 3.23 µM
MDA-MB-231 [10]
  IC50: 1.6 µM
SUM-159-PT [11]
  Activity: 8
SUM-159-PT [12]
  inhibition: Dose-dependent effect
MDA-MB-231 [19]
  inhibition: Active
SUM-159-PT [14]
  Activity: 1
MCF7 [20]
  inhibition at 0.2 µM: 10.3%
[21]
  inhibition: Active
SUM-159-PT [16]
  Activity: 2
MCF7 [17]
  inhibition: Dose-dependent effect

## CSc1ccc2c(c1)N(CCCN1CCN(C(=O)CCC(=O)OCCOc3no[n+]([O-])c3S(=O)(=O)c3ccccc3)CC1)c1ccccc1S2
SUM-159-PT [2]
  IC50: 1.2 µM
KG-1a
  IC50: 1.2 µM
[4]
  survival at 24 h, 250 µM: 32.3%
SK-BR-3 [6]
  IC50: 3.86 µM
MCF7 [9]
  IC50: 1.85 µM
MDA-MB-231 [10]
  IC50: 3.82 µM

## CSc1ccc2c(c1)N(CCCN1CCN(C(=O)CCC(=O)OCCCCOc3no[n+]([O-])c3S(=O)(=O)c3ccccc3)CC1)c1ccccc1S2
SUM-159-PT [2]
  IC50: 1.14 µM
KG-1a
  IC50: 1.14 µM
[4]
  survival at 24 h, 250 µM: 25.8%
SK-BR-3 [6]
  IC50: 9.72 µM
SUM-159-PT [8]
  Ratio IC50: 6 - 15
MCF7 [9]
  IC50: 0.84 µM
MDA-MB-231 [10]
  IC50: 3.62 µM
MCF7 [13]
  Ratio IC50: 4 - 13
MDA-MB-231 [22]
  Ratio IC50: 6

## CN1CCN(CCCN2c3ccccc3Sc3ccc(C(F)(F)F)cc32)CC1 [TRIFLUOPERAZINE]
SUM-159-PT [2]
  IC50: 17 µM
KG-1a
  IC50: 4.58 µM
SK-BR-3 [6]
  IC50: 15.9 µM
MCF7 [9]
  IC50: 11.3 µM
MDA-MB-231 [10]
  IC50: 21.6 µM
MDA-MB-231 [23]
  inhibition: Active
SUM-159-PT [14]
  Activity: 12
MCF7 [24]
  inhibition at 2.83 µM: 63.8%

## O=C(CCC(=O)N1CCN(CCCN2c3ccccc3Sc3ccc(C(F)(F)F)cc32)CC1)OCCOc1no[n+]([O-])c1S(=O)(=O)c1ccccc1
SUM-159-PT [2]
  IC50: 2.2 µM
KG-1a
  IC50: 2.2 µM
[4]
  survival at 24 h, 250 µM: 25.8%
SK-BR-3 [6]
  IC50: 1.51 µM
MCF7 [9]
  IC50: 1.36 µM
MDA-MB-231 [10]
  IC50: 7.09 µM

## O=C(CCC(=O)N1CCN(CCCN2c3ccccc3Sc3ccc(C(F)(F)F)cc32)CC1)NCCOc1no[n+]([O-])c1S(=O)(=O)c1ccccc1
SUM-159-PT [2]
  IC50: 1.98 µM
SK-BR-3 [25]
  Ratio IC50: 4 - 9
SK-BR-3 [6]
  IC50: 1.77 µM
SUM-159-PT [8]
  Ratio IC50: 9
MCF7 [9]
  IC50: 6.96 µM
MDA-MB-231 [10]
  IC50: 6.04 µM
MDA-MB-231 [22]
  Ratio IC50: 4 - 15

## O=C(CCC(=O)N1CCN(CCCN2c3ccccc3Sc3ccc(C(F)(F)F)cc32)CC1)OCCCCOc1no[n+]([O-])c1S(=O)(=O)c1ccccc1
SUM-159-PT [2]
  IC50: 2.93 µM
KG-1a
  IC50: 2.93 µM
[4]
  survival at 24 h, 250 µM: 19.4%
SK-BR-3 [6]
  IC50: 64.6 µM
SUM-159-PT [8]
  Ratio IC50: 6 - 15
MCF7 [9]
  IC50: 1.35 µM
MDA-MB-231 [10]
  IC50: 10.2 µM
MCF7 [13]
  Ratio IC50: 4 - 13

## O=C(CCC(=O)N1CCN(CCCN2c3ccccc3Sc3ccc(C(F)(F)F)cc32)CC1)OCCOCCOc1no[n+]([O-])c1S(=O)(=O)c1ccccc1
SUM-159-PT [2]
  IC50: 3.36 µM
SK-BR-3 [6]
  IC50: 10.1 µM
SUM-159-PT [8]
  Ratio IC50: 4 - 9
MCF7 [9]
  IC50: 3.31 µM
MDA-MB-231 [10]
  IC50: 3.12 µM
MCF7 [13]
  Ratio IC50: 3
MDA-MB-231 [22]
  Ratio IC50: 7
